Measurements taken from PubChem BioAssay AID623930 (Southern Research Specialized Biocontainment Screening …, 2012).
The source made the active and inactive calls.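 The calls were made as follows: active = viability below 70% at one or more concentrations in every replicate; inactive = viability above 70% at all doses, or replicates disagree.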

Key:
[1] = Vero E6 cell cytotoxicity, SAR follow-up, cytotoxicity control for West Nile virus antiviral project, synthesized analogs, extended characterization 2 (AID 623930); details: Vero E6 viability, CellTiter-Glo luminescence, 96 h; at 100 µM (top of the series)
[2] = system: Vero E6 viability, CellTiter-Glo luminescence, 96 h; experiment: as above

Compound	viability [1]	CC50 [2] [µM]
O=C(CSc1nc2c(F)cccc2c(=O)n1-c1cc(Cl)cc(Cl)c1)Nc1nc(-c2ccccc2)cs1	76% (inactive)	
O=C(CSc1nc2ccccc2c(=O)n1-c1cc(F)cc(F)c1)Nc1nc(-c2ccccc2)cs1		82.9
O=C(CSc1nc2ccccc2c(=O)n1-c1ccc(Cl)c(F)c1)c1nc(-c2ccccc2)cs1	72% (inactive)	
O=C(CSc1nc2ccccc2c(=O)n1-c1ccc(Cl)c(Cl)c1)Nc1ccc2c(c1)CCC2	75.2% (inactive)	
N#Cc1ccc(-n2c(SCC(=O)Nc3nc(-c4ccccc4)cs3)nc3ccccc3c2=O)cc1F	78.4% (inactive)	
O=C(CSc1nc2c(F)cccc2c(=O)n1-c1ccc(Cl)c(Cl)c1)Nc1nc(-c2ccccc2)cs1	73.3% (inactive)	
O=C(CSc1nc2c(F)cccc2c(=O)n1-c1ccc(Cl)c(Cl)c1)Nc1ccc2c(c1)CCC2		34.5
O=C(CSc1nc2ccccc2c(=O)n1-c1c(Cl)cccc1Cl)Nc1ccc2c(c1)CCC2	74.6% (inactive)	
O=C(CSc1nc2c(F)cccc2c(=O)n1-c1cc(Cl)cc(Cl)c1)Nc1ccc2c(c1)CCC2		77
O=C(CSc1nc2c(Cl)cccc2c(=O)n1-c1cc(Cl)cc(Cl)c1)Nc1ccc2c(c1)CCC2		72.2
O=C(CSc1nc2ccccc2c(=O)n1-c1c(Cl)cccc1Cl)Nc1nc(-c2ccccc2)cs1		52.6
O=C(CSc1nc2cccc(F)c2c(=O)n1-c1ccc(Cl)c(Cl)c1)Nc1ccc2c(c1)CCC2	71.9% (inactive)	
Cc1cc(-n2c(SCC(=O)Nc3nc(-c4ccccc4)cs3)nc3ccccc3c2=O)ccc1F		87.8
